According to patent US8883504B2, “Cell differentiation suppressing agent, method of culturing cells using the same, culture solution, and cultured cell line” (Asahi Kasei Kabushiki Kaisha, priority 2003, dated 2014):

Experiments:
SSEA-1 antigen = assay: Evaluation of the expression level of SSEA-1 antigen 1 (flow cytometry); type: cell-based, mouse; details: D3ES cells, 7 days, FIG. 8
Method: For the D3ES cells prepared by the method described in (3) preparation of a mouse ES cell of Example 1, 8×10^4 cells were seeded in a 10 cm-diameter cell culture dish coated previously with a 0.1% aqueous gelatin solution to make 10 mL of the ES cell assay medium. 1 mL of the differentiation inhibiting agent A to F, which were dissolved in dimethylsulfoxide (DMSO) or culture medium or their mixture to make 40 μg/mL per each dish, or ESGRO, which was adjusted to make 10^4 unit/mL, was added, and culturing was carried out at 37° C. in 5% […] incubator for 7 days. To the culture medium was added DMSO to make the final concentration 0.1% or lower.
The cells cultured in (1) ES cell differentiation inhibition assay 2 as described above were washed twice with PBS, and were removed from the dish with a cell scraper. 300 μL of Hanks balanced salt solution (HBSS, Invitrogen Corp. made) containing 2% FBS was added to give 6×10^5 cells. 30 μL of MX-SSEA-1 antibody (Kyowa Medex Corp. made) diluted 50 folds with HBSS was added, and left stand for 40 minutes on ice. […] The sample used for flow cytometry was measured after passed through a nylon mesh with a 100 μm pore size to eliminate a coagulated mass. […]

Nanog gene = Nanog gene expression level by real time PCR (ES cell differentiation inhibition assay 3); type: cell-based, mouse; details: D3ES cells, 4 μg/mL, 1 day, GAPDH internal standard, FIG. 7
Method: For the D3ES cells prepared by the method described in (3) preparation of a mouse ES cell of Example 1, 7.85×10^5 cells were seeded in a 10 cm-diameter cell culture dish coated previously with a 0.1% aqueous gelatin solution to make 10 mL of the ES cell assay medium. The differentiation inhibiting agent B of the present invention in the final concentration of 4 μg/mL or ESGRO in the final concentration of 1×10^3 unit/mL was added to each dish, and culturing was carried out at 37° C. in 5% CO2 incubator for 1 day.
The total RNA was extracted from the ES cell cultured by the method shown in (3) ES cell differentiation inhibition assay 3 as described above by using ISOGEN (K.K. Nippon Gene Corp. Japan made) by the attached method. In this method, the cell was collected in a 15 mL sterilized tube, centrifuged at 1,000 rpm for about 5 minutes by using the table centrifuge (TOMY SEIKO made) to make pellets. The supernatant was removed, the pellets were washed twice with 10 mL of PBS, and then, transferred to a 1.5 mL Eppendorf tube. The pellets were dissolved in 1 ml ISOGENE and left stand at room temperature for 5 minutes and, then, added with 0.2 mL of chloroform (Wako Pure Chemicals), shaken for 15 seconds, and left stand at room temperature for 2 or 3 minutes. Centrifugation was carried out at 4° C. at 10,000 rpm for 15 minutes by using the micro centrifuge (TOMY SEIKO made), 400 μL of the supernatant was transferred to a fresh 1.5 mL Eppendorf tube. 500 μL of isopropanol (Wako Pure Chemicals) was added and the mixture was left stand at room temperature for 10 minutes and, then, was centrifuged at 4° C. at 10,000 rpm for 10 minutes by using the micro centrifuge. The supernatant was removed and, then, 1 mL of a 70% ethanol aqueous solution was added. The mixture was shaken and then was centrifuged at 4° C. at 10,000 rpm for about 5 minutes by using the micro centrifuge. The supernatant was removed and the precipitation was dried and, then, dissolved in 30 μL of distilled water to obtain the total RNA solution.
The cDNA was synthesized by using 2 μg of the total RNA obtained by such the way as the template, using DeoxyribonucleaseI (Amplification Grade) (Invitrogen Corp. made) and SuperScript III First-Strand Synthesis System for RT-PCR (Invitrogen Corp. made, 18080-051) by the attached protocol. In this step, 1 μL of 10× DNaseI Reaction Buffer, 1 μL of 10× DNaseI (all these were of Invitrogen Corp. made) were added to 2 μg of the total RNA to give the total volume of 10 μL by adding distilled water to prepare the reaction solution, and then incubation was carried out at room temperature for 10 minutes. 1 μL of 25 mM EDTA solution was added, and the mixture was heated at 65° C. for 10 minutes and then, cooled to room temperature. 8 μL of the reaction solution was taken out, and 1 μL of […] Oligo(dT) 20 primer and 1 μL of 10 mM dNTP Mix were added, and incubation was carried out at 65° C. for 5 minutes. The reaction solution was placed on ice for 1 minute, and then 2 μL of 10× RT Buffer, 4 μL of 25 mM MgCl2, 2 μL of 0.1 M DTT, 1 μL of RNaseOUT (Invitrogen Corp. made) and 1 μL of SuperScript III RT were added for incubation at 50° C. for 50 minutes. Subsequently, incubation was carried out at 85° C. for 5 minutes, and then the mixture was left stand on ice for 1 min. […] The expression level of the Nanog gene and the glyceraldehyde-3-phosphate dehydrogenase (GAPDH) gene as the internal standard were measured. […]

SMILES: CC1(C)Cc2ccccc2C(=C(N=Nc2cccc(Cl)c2)C(N)=O)N1 [C, 2-(3-chloro-phenylazo)-2-(3,3-dimethyl-3,4-dihydro-2H-isoquinoline-1-ylidene)-acetamide]
- average fluorescence intensity per 1 cell (SSEA-1 antigen expression intensity per 1 cell) in comparison with medium without agent (SSEA-1 antigen): significantly high
- expression level of Nanog gene in comparison with medium without agent and medium containing 1,000 units/mL of ESGRO (Nanog gene): increased similarly to the differentiation inhibiting agents B

SMILES: CC1(C)Cc2ccccc2C(=C(N=Nc2cccc([N+](=O)[O-])c2)C(N)=O)N1 [E, 2-(3,3-dimethyl-3,4-dihydro-2H-isoquinoline-1-ylidene)-2-(3-nitro-phenylazo)-acetamide]
- average fluorescence intensity per 1 cell (SSEA-1 antigen expression intensity per 1 cell) in comparison with medium without agent (SSEA-1 antigen): significantly high
- expression level of Nanog gene in comparison with medium without agent and medium containing 1,000 units/mL of ESGRO (Nanog gene): increased similarly to the differentiation inhibiting agents B

SMILES: COc1ccc(N=NC(C(N)=O)=C2NC(C)(C)Cc3ccccc32)cc1 [F, 2-(3,3-dimethyl-3,4-dihydro-2H-isoquinoline-1-ylidene)-2-(4-methoxy-phenylazo)-acetamide]
- expression level of Nanog gene in comparison with medium without agent and medium containing 1,000 units/mL of ESGRO (Nanog gene): increased similarly to the differentiation inhibiting agents B

SMILES: CC(=O)c1ccc(/N=N/C(C(N)=O)=C2/NC(C)(C)Cc3ccccc32)cc1 [compound B, 2-(4-acetyl-phenylazo)-2-(3,3-dimethyl-3,4-dihydro-2H-isoquinoline-1-ylidene)-acetamide]
- expression level of Nanog gene in comparison with medium without agent and medium containing 1,000 units/mL of ESGRO (Nanog gene): increased significantly
